{
  "source": "PubChem BioAssay AID290",
  "about": "(DTP/NCI, 2004)",
  "tested_on": "mice, P1798 lymphosarcoma sc, survival or tumor weight T/C",
  "test": "NCI In Vivo Anticancer Drug Screen. Data for tumor model P1798 Lymphosarcoma (subcutaneous) in unknown mice",
  "protocol": "The antitumor activity of compounds was measured in mice bearing transplantable tumors. Survival or tumor size were measured and the results are expressed as the measurement made in the treated group (T) divided by the measurement made in the vehicle treated control group (C). The tumor model used in this assay is P1798 Lymphosarcoma (subcutaneous) in unknown mice",
  "key": {"[1]": {"conditions": "endpoint: mean tumor weight, dose: 25.0 mg/kg/injection, schedule: Q01DX010 (ip), vehicle: carboxymethylcellulose (CMC), higher = larger tumour"}, "[2]": {"conditions": "endpoint: mean tumor weight, dose: 50.0 mg/kg/injection, schedule: Q01DX010 (ip), vehicle: carboxymethylcellulose (CMC), higher = larger tumour"}, "[3]": {"conditions": "endpoint: mean tumor weight, dose: 62.5 mg/kg/injection, schedule: Q01DX010 (sc), vehicle: steriod suspending solution, higher = larger tumour"}, "[4]": {"conditions": "endpoint: mean tumor weight, dose: 125.0 mg/kg/injection, schedule: Q01DX010 (ip), vehicle: saline, higher = larger tumour"}, "[5]": {"conditions": "endpoint: mean tumor weight, dose: 250.0 mg/kg/injection, schedule: Q01DX010 (ip), vehicle: saline, higher = larger tumour"}, "[6]": {"conditions": "endpoint: mean tumor weight, dose: 500.0 mg/kg/injection, schedule: Q01DX010 (ip), vehicle: saline, higher = larger tumour"}},
  "note": "Values joined by “and” are separate entries in the source; they are usually repeats but may differ in a detail not shown here. Identical values can stand only once. Inconclusive results are not listed.",
  "data": [
    {"compound": "O=c1[nH]cc(F)c(=O)[nH]1", "values": [
      {"measurement": "T/C", "setting": "endpoint: mean tumor weight, dose: 2.0 mg/kg/injection, schedule: Q01DX010 (ip), vehicle: saline, higher = larger tumour", "value": "119 % of control"},
      {"measurement": "T/C", "setting": "endpoint: mean tumor weight, dose: 2.5 mg/kg/injection, schedule: Q01DX015 (ip), vehicle: carboxymethylcellulose (CMC), higher = larger tumour", "value": "108 % of control"},
      {"measurement": "T/C", "setting": "endpoint: mean tumor weight, dose: 5.0 mg/kg/injection, schedule: Q01DX010 (ip), vehicle: saline, higher = larger tumour", "value": "36 % of control"},
      {"measurement": "T/C", "setting": "endpoint: mean tumor weight, dose: 6.3 mg/kg/injection, schedule: Q01DX010 (ip), vehicle: saline, higher = larger tumour", "value": "44 % of control"},
      {"measurement": "T/C", "setting": "endpoint: mean tumor weight, dose: 10.0 mg/kg/injection, schedule: Q01DX015 (ip), vehicle: carboxymethylcellulose (CMC), higher = larger tumour", "value": "119 % of control"},
      {"measurement": "T/C", "setting": "endpoint: mean tumor weight, dose: 12.5 mg/kg/injection, schedule: Q01DX010 (ip), vehicle: saline, higher = larger tumour", "value": "27 % of control"},
      {"measurement": "T/C", "setting": "endpoint: mean tumor weight, dose: 40.0 mg/kg/injection, schedule: Q01DX001 (ip), vehicle: carboxymethylcellulose (CMC), higher = larger tumour", "value": "71 % of control"},
      {"measurement": "T/C", "setting": "endpoint: mean tumor weight, dose: 80.0 mg/kg/injection, schedule: Q01DX001 (ip), vehicle: carboxymethylcellulose (CMC), higher = larger tumour", "value": "69 % of control"},
      {"measurement": "T/C", "setting": "endpoint: median survival time, dose: 5.0 mg/kg/injection, schedule: Q01DX010 (ip), vehicle: saline, higher = longer survival", "value": "97 % of control and 103 % of control (2×)"},
      {"measurement": "T/C", "setting": "endpoint: median survival time, dose: 10.0 mg/kg/injection, schedule: Q01DX010 (ip), vehicle: saline, higher = longer survival", "value": "117 % of control (2×) and 103 % of control"},
      {"measurement": "T/C", "setting": "endpoint: median survival time, dose: 20.0 mg/kg/injection, schedule: Q01DX010 (ip), vehicle: saline, higher = longer survival", "value": "116 % of control and 39 % of control"},
      {"measurement": "T/C", "setting": "endpoint: median survival time, dose: 40.0 mg/kg/injection, schedule: Q01DX010 (ip), vehicle: saline, higher = longer survival", "value": "24 % of control and 28 % of control"},
      {"measurement": "T/C", "setting": "endpoint: median survival time, dose: 80.0 mg/kg/injection, schedule: Q01DX010 (ip), vehicle: saline, higher = longer survival", "value": "26 % of control"}
    ]},
    {"compound": "N#CCSc1ncnc2nc[nH]c12", "values": [
      {"measurement": "T/C", "setting": "[1]", "value": "49 % of control"},
      {"measurement": "T/C", "setting": "[2]", "value": "46 % of control"}
    ]},
    {"compound": "OCC1OC(n2cnc3c(Cl)ncnc32)C(O)C1O", "note": "(stereo not drawn)", "values": [
      {"measurement": "T/C", "setting": "endpoint: mean tumor weight, dose: 62.5 mg/kg/injection, schedule: Q01DX010 (ip), vehicle: carboxymethylcellulose (CMC), higher = larger tumour", "value": "104 % of control"},
      {"measurement": "T/C", "setting": "endpoint: mean tumor weight, dose: 125.0 mg/kg/injection, schedule: Q01DX010 (ip), vehicle: carboxymethylcellulose (CMC), higher = larger tumour", "value": "107 % of control"},
      {"measurement": "T/C", "setting": "endpoint: mean tumor weight, dose: 250.0 mg/kg/injection, schedule: Q01DX010 (ip), vehicle: carboxymethylcellulose (CMC), higher = larger tumour", "value": "92 % of control"},
      {"measurement": "T/C", "setting": "endpoint: mean tumor weight, dose: 500.0 mg/kg/injection, schedule: Q01DX010 (ip), vehicle: carboxymethylcellulose (CMC), higher = larger tumour", "value": "91 % of control and 95 % of control"},
      {"measurement": "T/C", "setting": "endpoint: mean tumor weight, dose: 1000.0 mg/kg/injection, schedule: Q01DX010 (ip), vehicle: carboxymethylcellulose (CMC), higher = larger tumour", "value": "79 % of control"}
    ]},
    {"compound": "CC/C(=C(/CC)c1ccc(O)cc1)c1ccc(O)cc1", "values": [
      {"measurement": "T/C", "setting": "[3]", "value": "64 % of control"},
      {"measurement": "T/C", "setting": "endpoint: mean tumor weight, dose: 125.0 mg/kg/injection, schedule: Q01DX010 (sc), vehicle: steriod suspending solution, higher = larger tumour", "value": "83 % of control"},
      {"measurement": "T/C", "setting": "endpoint: mean tumor weight, dose: 500.0 mg/kg/injection, schedule: Q01DX010 (sc), vehicle: steriod suspending solution, higher = larger tumour", "value": "39 % of control"}
    ]},
    {"compound": "COc1ccc(-c2c(CC(=O)O)c3cc(OC)ccc3n2Cc2ccc(Cl)cc2)cc1", "values": [
      {"measurement": "T/C", "setting": "[4]", "value": "105 % of control"},
      {"measurement": "T/C", "setting": "[5]", "value": "108 % of control"},
      {"measurement": "T/C", "setting": "[6]", "value": "112 % of control"},
      {"measurement": "T/C", "setting": "endpoint: mean tumor weight, dose: 1000.0 mg/kg/injection, schedule: Q01DX010 (ip), vehicle: saline, higher = larger tumour", "value": "110 % of control"}
    ]},
    {"compound": "COc1cc2c(c(OC)c1OC)-c1ccc(OC)c(=O)cc1[C@@H](NC(C)=O)CC2", "values": [
      {"measurement": "T/C", "setting": "endpoint: mean tumor weight, dose: 0.12 mg/kg/injection, schedule: Q01DX010 (ip), vehicle: saline, higher = larger tumour", "value": "50 % of control"},
      {"measurement": "T/C", "setting": "endpoint: mean tumor weight, dose: 0.25 mg/kg/injection, schedule: Q01DX010 (ip), vehicle: saline, higher = larger tumour", "value": "59 % of control"},
      {"measurement": "T/C", "setting": "endpoint: mean tumor weight, dose: 0.5 mg/kg/injection, schedule: Q01DX010 (ip), vehicle: saline, higher = larger tumour", "value": "5 % of control"}
    ]},
    {"compound": "O=c1[nH]c(=O)n(C2CC(O)C(CO)O2)cc1F", "note": "(stereo not drawn)", "values": [
      {"measurement": "T/C", "setting": "[1]", "value": "42 % of control"},
      {"measurement": "T/C", "setting": "[2]", "value": "30 % of control"}
    ]},
    {"compound": "NC(=O)N(CCCl)N=O", "values": [
      {"measurement": "T/C", "setting": "endpoint: mean tumor weight, dose: 1.0 mg/kg/injection, schedule: Q01DX010 (ip), vehicle: carboxymethylcellulose (CMC), higher = larger tumour", "value": "104 % of control"},
      {"measurement": "T/C", "setting": "endpoint: mean tumor weight, dose: 2.0 mg/kg/injection, schedule: Q01DX010 (ip), vehicle: carboxymethylcellulose (CMC), higher = larger tumour", "value": "115 % of control"},
      {"measurement": "T/C", "setting": "endpoint: mean tumor weight, dose: 4.0 mg/kg/injection, schedule: Q01DX010 (ip), vehicle: carboxymethylcellulose (CMC), higher = larger tumour", "value": "116 % of control"},
      {"measurement": "T/C", "setting": "endpoint: mean tumor weight, dose: 8.0 mg/kg/injection, schedule: Q01DX010 (ip), vehicle: carboxymethylcellulose (CMC), higher = larger tumour", "value": "61 % of control"}
    ]},
    {"compound": "Nc1nc2n[nH]nc2c(=O)[nH]1", "values": [
      {"measurement": "T/C", "setting": "endpoint: mean tumor weight, dose: 50.0 mg/kg/injection, schedule: Q01DX010 (ip), vehicle: other, higher = larger tumour", "value": "67 % of control and 71 % of control and 88 % of control"},
      {"measurement": "T/C", "setting": "endpoint: mean tumor weight, dose: 200.0 mg/kg/injection, schedule: Q01DX010 (ip), vehicle: other, higher = larger tumour", "value": "46 % of control"}
    ]},
    {"compound": "C[C@]12C=CC(=O)C=C1CC[C@@H]1[C@@H]2[C@@H](O)C[C@@]2(C)[C@H]1CC[C@]2(O)C(=O)CO", "values": [
      {"measurement": "T/C", "setting": "endpoint: mean tumor weight, dose: 31.3 mg/kg/injection, schedule: Q01DX010 (sc), vehicle: steriod suspending solution, higher = larger tumour", "value": "22 % of control"},
      {"measurement": "T/C", "setting": "[3]", "value": "8 % of control"}
    ]},
    {"compound": "C[C@H](N)C(=O)N[C@@H]1[C@H]2C(=C(O)C[C@@H](O)[C@@H]2O)C(=O)O[C@@H]1C", "values": [
      {"measurement": "T/C", "setting": "[4]", "value": "61 % of control"},
      {"measurement": "T/C", "setting": "[5]", "value": "84 % of control"},
      {"measurement": "T/C", "setting": "[6]", "value": "64 % of control"}
    ]}
  ]
}
